# Experimental data: patent publication US20230210831A1, “CHRONIC KIDNEY DISEASE TREATMENT OR PREVENTION METHOD” (Japan Tobacco Inc., priority 2019, published 2023)
# Key:
# Format in all cases: cell-based
# [1] = system: Salmonella typhimurium TA1535; test: Ames test (reverse mutation test), TA1535
# Method: (§1) The solvent used herein was dimethyl sulfoxide (DMSO, 100 µL/plate).
# (§2) The mixtures were preincubated at 37° C. for 20 minutes while shaking. […] Two plates per treatment were used.
# [2] = system: Salmonella typhimurium TA1537; test: Ames test (reverse mutation test), TA1537
# Method: as §1, §2
# Escherichia coli WP2uvrA = test: Ames test (reverse mutation test), WP2uvrA
# Method: as §1, §2
# [3] = system: Salmonella typhimurium TA98; test: Ames test (reverse mutation test), TA98
# Method: as §1, §2
# [4] = system: Salmonella typhimurium TA100; test: Ames test (reverse mutation test), TA100
# Method: as §1, §2
compound,measurement,setting,value
Nc1cc(-c2cccc(OCC(F)(F)F)c2)n(-c2ccc(F)cc2)n1 [Metabolite E],Number of revertant colonies TA1535,"[1]; S9 Mix +, dose 1667 µg/plate",0
same,Number of revertant colonies TA1535,"[1]; S9 Mix -, dose 556 µg/plate",0
same,Number of revertant colonies TA1535,"[1]; S9 Mix -, dose 1667 µg/plate",0
same,potential to induce reverse mutations,[1]; TA1535 with S9 mix,showed potential to induce reverse mutations
same,Number of revertant colonies TA1537,"[2]; S9 Mix +, dose 2.3 µg/plate",65
same,Number of revertant colonies TA1537,"[2]; S9 Mix +, dose 6.9 µg/plate",227
same,Number of revertant colonies TA1537,"[2]; S9 Mix +, dose 21 µg/plate",180
same,Number of revertant colonies TA1537,"[2]; S9 Mix +, dose 62 µg/plate",102
same,Number of revertant colonies TA1537,"[2]; S9 Mix +, dose 185 µg/plate",85
same,Number of revertant colonies TA1537,"[2]; S9 Mix +, dose 556 µg/plate",0
same,Number of revertant colonies TA1537,"[2]; S9 Mix +, dose 1667 µg/plate",0
same,Number of revertant colonies TA1537,"[2]; S9 Mix +, dose 5000 µg/plate",0
same,Number of revertant colonies TA1537,"[2]; S9 Mix -, dose 2.3 µg/plate",17
same,Number of revertant colonies TA1537,"[2]; S9 Mix -, dose 6.9 µg/plate",20
same,Number of revertant colonies TA1537,"[2]; S9 Mix -, dose 21 µg/plate",16
same,Number of revertant colonies TA1537,"[2]; S9 Mix -, dose 62 µg/plate",11
same,Number of revertant colonies TA1537,"[2]; S9 Mix -, dose 185 µg/plate",3
same,Number of revertant colonies TA1537,"[2]; S9 Mix -, dose 556 µg/plate",0
same,Number of revertant colonies TA1537,"[2]; S9 Mix -, dose 1667 µg/plate",0
same,Number of revertant colonies TA1537,"[2]; S9 Mix -, dose 5000 µg/plate",0
same,potential to induce reverse mutations,[2]; TA1537 with S9 mix,showed potential to induce reverse mutations
same,potential to induce reverse mutations,[2]; TA1537 without S9 mix,showed potential to induce reverse mutations
same,Number of revertant colonies WP2uvrA,"Escherichia coli WP2uvrA; S9 Mix +, dose 2.3 µg/plate",26
same,Number of revertant colonies WP2uvrA,"Escherichia coli WP2uvrA; S9 Mix +, dose 6.9 µg/plate",32
same,Number of revertant colonies WP2uvrA,"Escherichia coli WP2uvrA; S9 Mix +, dose 21 µg/plate",24
same,Number of revertant colonies WP2uvrA,"Escherichia coli WP2uvrA; S9 Mix +, dose 62 µg/plate",30
same,Number of revertant colonies WP2uvrA,"Escherichia coli WP2uvrA; S9 Mix +, dose 185 µg/plate",18
same,Number of revertant colonies WP2uvrA,"Escherichia coli WP2uvrA; S9 Mix +, dose 556 µg/plate",19
same,Number of revertant colonies WP2uvrA,"Escherichia coli WP2uvrA; S9 Mix +, dose 1667 µg/plate",13
same,Number of revertant colonies WP2uvrA,"Escherichia coli WP2uvrA; S9 Mix +, dose 5000 µg/plate",12
same,Number of revertant colonies WP2uvrA,"Escherichia coli WP2uvrA; S9 Mix -, dose 2.3 µg/plate",20
same,Number of revertant colonies WP2uvrA,"Escherichia coli WP2uvrA; S9 Mix -, dose 6.9 µg/plate",26
same,Number of revertant colonies WP2uvrA,"Escherichia coli WP2uvrA; S9 Mix -, dose 21 µg/plate",24
same,Number of revertant colonies WP2uvrA,"Escherichia coli WP2uvrA; S9 Mix -, dose 62 µg/plate",27
same,Number of revertant colonies WP2uvrA,"Escherichia coli WP2uvrA; S9 Mix -, dose 185 µg/plate",22
same,Number of revertant colonies WP2uvrA,"Escherichia coli WP2uvrA; S9 Mix -, dose 556 µg/plate",10
same,Number of revertant colonies WP2uvrA,"Escherichia coli WP2uvrA; S9 Mix -, dose 1667 µg/plate",15
same,Number of revertant colonies WP2uvrA,"Escherichia coli WP2uvrA; S9 Mix -, dose 5000 µg/plate",7
same,Number of revertant colonies TA98,"[3]; S9 Mix +, dose 2.3 µg/plate",589
same,Number of revertant colonies TA98,"[3]; S9 Mix +, dose 6.9 µg/plate",1310
same,Number of revertant colonies TA98,"[3]; S9 Mix +, dose 21 µg/plate",1001
same,Number of revertant colonies TA98,"[3]; S9 Mix +, dose 62 µg/plate",490
same,Number of revertant colonies TA98,"[3]; S9 Mix +, dose 185 µg/plate",268
same,Number of revertant colonies TA98,"[3]; S9 Mix +, dose 556 µg/plate",77
same,Number of revertant colonies TA98,"[3]; S9 Mix +, dose 1667 µg/plate",15
same,Number of revertant colonies TA98,"[3]; S9 Mix +, dose 5000 µg/plate",12
same,Number of revertant colonies TA98,"[3]; S9 Mix -, dose 2.3 µg/plate",26
same,Number of revertant colonies TA98,"[3]; S9 Mix -, dose 6.9 µg/plate",27
same,Number of revertant colonies TA98,"[3]; S9 Mix -, dose 21 µg/plate",28
same,Number of revertant colonies TA98,"[3]; S9 Mix -, dose 62 µg/plate",32
same,Number of revertant colonies TA98,"[3]; S9 Mix -, dose 185 µg/plate",17
same,Number of revertant colonies TA98,"[3]; S9 Mix -, dose 556 µg/plate",12
same,Number of revertant colonies TA98,"[3]; S9 Mix -, dose 1667 µg/plate",6
same,Number of revertant colonies TA98,"[3]; S9 Mix -, dose 5000 µg/plate",2
same,potential to induce reverse mutations,[3]; TA98 with S9 mix,showed potential to induce reverse mutations
same,Number of revertant colonies TA100,"[4]; S9 Mix +, dose 2.3 µg/plate",1338
same,Number of revertant colonies TA100,"[4]; S9 Mix +, dose 6.9 µg/plate",2032
same,Number of revertant colonies TA100,"[4]; S9 Mix +, dose 21 µg/plate",2016
same,Number of revertant colonies TA100,"[4]; S9 Mix +, dose 62 µg/plate",2320
same,Number of revertant colonies TA100,"[4]; S9 Mix +, dose 185 µg/plate",1799
same,Number of revertant colonies TA100,"[4]; S9 Mix +, dose 556 µg/plate",1082
same,Number of revertant colonies TA100,"[4]; S9 Mix +, dose 1667 µg/plate",182
same,Number of revertant colonies TA100,"[4]; S9 Mix +, dose 5000 µg/plate",157
same,Number of revertant colonies TA100,"[4]; S9 Mix -, dose 2.3 µg/plate",110
same,Number of revertant colonies TA100,"[4]; S9 Mix -, dose 6.9 µg/plate",96
same,Number of revertant colonies TA100,"[4]; S9 Mix -, dose 21 µg/plate",96
same,Number of revertant colonies TA100,"[4]; S9 Mix -, dose 62 µg/plate",101
same,Number of revertant colonies TA100,"[4]; S9 Mix -, dose 185 µg/plate",75
same,Number of revertant colonies TA100,"[4]; S9 Mix -, dose 556 µg/plate",38
same,Number of revertant colonies TA100,"[4]; S9 Mix -, dose 1667 µg/plate",27
same,Number of revertant colonies TA100,"[4]; S9 Mix -, dose 5000 µg/plate",0
same,potential to induce reverse mutations,[4]; TA100 with S9 mix,showed potential to induce reverse mutations
